According to patent US11523610B2, “Regulating plant growth using a diapocarotenoid” (King Abdullah University of Science and Technology, priority 2018, dated 2022):
Entries after “also recorded” stand apart in the source; their conditions may differ.

What was measured:
[1] = test system: Arabidopsis seedlings (anchor roots); assay: Anchor root (ANR) emergence/formation in seedlings without RAM excision; format: in vivo; conditions: for seedlings forming ANRs: no RAM excision, 8 DAG
Protocol: Sterilized Col-0 and mutants seeds were kept at 4° C. in darkness for 3 days to stimulate seed germination, and then sown on half strength MSO plates (with 0.5% sucrose +1% agar, 0.5g/L MES, pH 5.7) supplemented with the indicated chemicals as described below or in the Figures. Plates were vertically grown in PERCIVAL® growth chambers under long day (16 h light/8 h dark, 22° C., 60% relative humidity, light density: 4000 LUX) LED white light [HYPERIKON® 16 W LED Light Bulb A21, 16 W (100 W Equivalent), CRI92, 1620 Lumens, 4000K (Daylight Glow)] conditions. Light fluorescence rates were measured using a digital LUX meter (PEAKTECH® 5025).
(§1) ANRs were counted in seedlings vertically grown on half strength MS (with 0.5% sucrose +1% agar, 0.5 g/L MES, pH 5.7) media 8 days post-stratification (dps) using a dissection microscope. To investigate ANR formation after root apical meristems (RAM) excision (ANR-RE), RAM of seedlings were excised using sterile scalpels at 5 dps and then grown for another 3 days prior to counting the number of emerged ANRs. RAM of seedlings were excised at 8 dps and then grown for another 3 days prior to counting the number of emerged LRs. For determining the effect of anchorene on lateral roots, the number of emerged lateral roots were counted using a dissection microscope at 8 dps. For primary root length measurements, seedlings were measured using the publicly available ImageJ software (downloaded from rsbweb.nih.gov/ij/) after taking digital photographs. For adventitious root assay, the number of emerged adventitious roots per plant were counted after 5 days of treatment on plates with or without anchorene.
Prior to the anchor root (ANR) measurements, seeds from 10 ecotypes (Po-0, Is-0, Wu-0, Col-0, Cvi-0, Hi-0, Ove-0, Sav-0, Ler and Kin-0) were harvested from plants grown in long-day photoperiod conditions (16h light/8 h darkness, 22° C., 60% humidity). Seeds of all 10 ecotypes were surfaced sterilized and incubated in sterile water at 4° C. for 8 days, for uniform germination. Natural ANR emergence and ANRC was measured as described above (Anchor root assays) for each ecotype. 20 μM anchorene was used to test the responses of the Po-0 and Is-0 ecotypes to anchorene.
Excision of the root apical meristems (RAM) triggers ANR formation (FIGS. 3C-D). […] About 9% of control Col-0 seedlings developed ANRs under normal conditions, while approximately 50% formed ANRs upon RAM excision (FIGS. 4B-C). […] Higher anchorene concentrations (10 and 20 μM) enhanced this ratio to 97% and 100%, respectively (FIGS. 4B-C). There was also an increase in the number of seedlings that developed two ANRs from 0% in the untreated control to approximately 80% upon application of 20 μM anchorene (FIGS. 4B-C). Using a wide range of concentrations, a dose-response curve was established in the presence and absence of RAM excision. […] Thus, the promotion of ANRs is not caused by inhibiting primary root growth.

[2] = test system: Arabidopsis collet transcriptome; assay: RNA-Seq of collet transcriptome; format: in vivo; conditions: collets
Protocol: For anchorene and NPA treatment, Col-0 seedlings were vertically grown on half MSO (with 0.5% sucrose+1% agar, 0.5 g/L MES, pH 5.7) plates supplemented with 20 μM anchorene or 1 μM NPA for 5 days. RAM excision treatment was applied by excising the RAM from 4.5-day old Col-0 seedlings, and then tissue was collected 12 hours after excision (5 DAG). About 2 mm of tissue at the collet site (see FIG. 11I) was collected at 5 DAG for all chemicals and physical treatment. Tissue from approximately 50 seedlings were used for each sample. Total RNA was extracted by Direct-zolTM RNA MiniPrep Plus (200 Preps) w/Zymo-Spin™ (ZYMO research). 100 ng total RNA were used for RNA Hi-seq 4000 (ILLUMINA). Each treatment includes three independent replicates.
Prior to the analysis of RNA-Seq data, the adaptor sequences and low-quality ends of sequenced reads were trimmed using Trimmomatic v0.32 and quality-checked using FastQC v0.11 (www.bioinformatics.babraham.ac.uk/projects/fastqc). To quantify the expression level of genes, the remaining reads were pseudo-aligned to the publicly available TAIR10 A. thaliana transcriptome (release 34) using kallisto v0.43.0. The estimated read counts and calculated transcripts per million (TPM) were subsequently passed to sleuth v0.28.1 for differential expression analysis. […] Gene ontology and KEGG pathway enrichment analyses were conducted using clusterProfiler and Pathview. RNA-Seq data can be accessed at NCBI via BioProject ID PRJNA489360.

[3] = test system: pDR5::LUC seedlings; assay: Luciferase assay in pDR5::LUC auxin marker line; format: in vivo, Arabidopsis; conditions: 1 μM NF, 20 μM anchorene
Protocol: Luciferase activity was assayed as previously described. Briefly, 1 mL of 5 mM Potassium Luciferin (Gold Biotechnology®) dissolved in water was directly applied to pDR5:LUC seedlings grown vertically on treated half strength MS plates. The luciferin solution was allowed to dry for 5-10 minutes in the dark, at room temperature. Seedlings were then imaged using a Lumazone™ CA automated Chemiluminescence system. Seven minute exposure times were used.
A pDR5::LUC line, which marks LR prebranch sites, was used to track ANR development. […] ANR primordia initiation was observed as early as 3 dps, in anchorene treated pDR5::LUC and 158 pDR5rev::GFP seedling (FIGS. 5A-C).

[4] = test system: Arabidopsis seedlings (anchor roots after RAM excision); assay: ANR formation after root apical meristem excision (ANR-RE); format: in vivo
Excerpt: as §1
ANR formation under carotenoid-deficient conditions was monitored to determine the role of endogenous carotenoids in ANR development. […] Therefore, ANR formation was monitored after RAM excision (ANR-RE) to stimulate ANR development. ANR measurements were used as an indicator of ANR formation capacity under different conditions. […] Norflurazon (NF) and 2-(4-chlorophenylthio)-triethylamine hydrochloride (CPTA), which block phytoene desaturation and lycopene cyclization, respectively were tested (FIG. 6A). The effect of D15, an inhibitor of CCDs was also investigated. Application of D15 to Arabidopsis seedlings is known to lead to an increase in carotenoid levels.

[5] = test system: Arabidopsis seedlings (lateral roots); assay: Lateral root emergence and lateral root capacity; format: in vivo
Excerpt: as §1

C\C(C=O)=C/C=C/C=C(\C)C=O [anchorene, 12,12′-diapocarotene-12,12′-dial]
seedlings forming ANRs ([1]; 5 μM, control about 9%): 55% | seedlings forming ANRs ([1]; 10 μM): 97% | seedlings forming ANRs ([1]; 20 μM): 100% | seedlings that developed two ANRs ([1]; 20 μM, untreated control 0%): approximately 80% | ANR emergence in different Arabidopsis ecotypes ([1]; Col-0, Is-0 and Po-0, 20 μM anchorene): promotes ANR emergence | ANR formation ([1]; screen at 5 or 25 μM): promotion of ANR formation | dose-response of ANR formation ([1]; wide range of concentrations, in presence and absence of RAM excision (FIG. 3J)): dose dependent | genes with opposite effects of RAM excision and anchorene treatment ([2]; 20 μM anchorene): 36 genes | genes with similar response to RAM excision and anchorene treatment ([2]; 20 μM anchorene): 1459 genes | overlapping genes on which NPA and anchorene exert the opposite effect ([2]; 20 μM anchorene, 1 μM NPA): 2791 (83%) genes | overlapping genes whose expression level is affected by NPA and anchorene ([2]; 20 μM anchorene, 1 μM NPA, 5 days): 3355 genes | effect on auxin biosynthesis genes ([2]; anchorene application): induction of many auxin biosynthesis genes | LUC signal in the collet [3]: intensified the LUC signal | rescue of ANR-RE in carotenoid biosynthesis inhibitor treated seedlings ([4]; 20 μM anchorene simultaneous with 1 μM NF or 100 μM CPTA): blocked inhibition of ANR-RE | rescue of ANR-RE in NPA treated seedlings ([4]; 20 μM anchorene with 1 μM NPA): partially compensated | ANR formation in arf7arf19 double mutant ([4]; arf7arf19, 20 μM anchorene or after RAM excision): did not form any ANR | rescue of ANR-RE in psy mutant ([4]; psy mutant, 20 μM anchorene): restored wild-type ANR-RE | lateral root emergence ([5]; 5 and 10 μM anchorene, 8 dps): no effect; also recorded: did not affect | LR capacity in untreated seedlings ([5]; LR No. after RAM excision, 20 μM anchorene): inhibits LR capacity | LR formation (LR capacity) after D15 treatment ([5]; LR No. after RAM excision, 20 μM anchorene and 100 μl D15): no significant effect | LR length ([5]; anchorene application (FIGS. 3E-F)): did not affect
